From patent publication US20230151014A1 (Repare Therapeutics Inc., priority 2020, published 2023) come the findings set out here.

Some results are limits rather than exact numbers.

In general, IC50 refers to the concentration that inhibits the measured activity by half.

This test deals with T1, recombinant human Myt1 (Homo sapiens, UniProt Q99640).
T1 construct: full length PKMYT1 recombinant human protein expressed in insect cells
T1 sequence (Q99640 1-499): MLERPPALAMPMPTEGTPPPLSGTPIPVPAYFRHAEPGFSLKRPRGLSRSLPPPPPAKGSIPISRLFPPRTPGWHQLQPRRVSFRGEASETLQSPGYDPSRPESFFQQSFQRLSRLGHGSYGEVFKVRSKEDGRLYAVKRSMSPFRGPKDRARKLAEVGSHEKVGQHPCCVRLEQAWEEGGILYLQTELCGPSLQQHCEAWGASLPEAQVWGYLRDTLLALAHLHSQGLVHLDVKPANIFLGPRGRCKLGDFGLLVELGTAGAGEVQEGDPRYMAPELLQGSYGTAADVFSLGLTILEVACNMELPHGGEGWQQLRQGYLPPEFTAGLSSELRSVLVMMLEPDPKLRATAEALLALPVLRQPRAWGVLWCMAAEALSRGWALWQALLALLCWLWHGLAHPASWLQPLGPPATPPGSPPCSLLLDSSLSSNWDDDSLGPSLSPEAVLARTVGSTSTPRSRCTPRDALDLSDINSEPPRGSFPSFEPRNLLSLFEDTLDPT
Description: Myt1 enzymatic assay (ADP-Glo kinase assay, IC50 and % max inhibition). The class given is biochemical. To be noted: recombinant human Myt1 18 nM, ATP 10 μM. The protocol:
Detection of Myt1 kinase activity utilized a recombinant human Myt1 kinase assay measuring the hydrolysis of ATP using a commercially available ADP-Glo Assay (ADP-Glo™ Kinase Assay from Promega, 10 000 assays, #V9102). […] After this, 5 μL of compounds (diluted in reaction buffer to 0.5% DMSO) was added to the microplate and the plate was spun briefly and incubated at 22° C. for 15 minutes. Ultra-Pure Adenosine Triphosphate (ATP) solution (ADP-Glo kit from Promega) was diluted in reaction buffer and 5 μL was added to the microplate, spun down briefly and incubated for 60 minutes at 30° C. […] After the 60-minute incubation, 15 μL of ADP-Glo reagent was added and the plate was spun briefly and sealed and incubated in the dark for 40 minutes at 22° C. […] Luminescence was read using the Envision (250 ms integration). The IC50 and the % max inhibition were calculated for each inhibitor compound tested.
On the technique in general: In ADP-Glo the light output rises with the ADP produced.
In the case of `Cc1ccc(O)c(C)c1-n1c(N)c(C(N)=O)c2ncc(C#CC3(O)CCOCC3)nc21` [Compound 231], the IC50 is less than 10 nM.

In the case of `Cc1ccc(O)cc1-n1c(N)c(C(N)=O)c2ncc(C(F)(F)F)cc21` [Compound 212, 2-amino-1-(5-hydroxy-2-methyl-phenyl)-6-(trifluoromethyl)pyrrolo[3,2-b]pyridine-3-carboxamide], the IC50 amounted to 3440 nM. Turning to `Cc1ccc(O)c(C)c1-n1c(N)c(C(N)=O)c2nc(-c3ccnnc3)cnc21` [Compound 250], the half-inhibitory concentration (IC50) was less than 10 nM. The figure for `Cc1ccc(O)cc1-n1c(N)c(C(N)=O)c2ncc(OCc3cccnc3)nc21` [Compound 153, 6-amino-5-(5-hydroxy-2-methyl-phenyl)-3-(3-pyridylmethoxy)pyrrolo[2,3-b]pyrazine-7-carboxamide] is 3550 nM; for `Cc1ccc(O)cc1-n1c(N)c(C(N)=O)c2nc(-c3ccc(F)c(Cl)c3)ccc21` [Compound 15] it is 1090 nM. For the compound `Cc1ccc(O)c(C)c1-n1c(N)c(C(N)=O)c2nc(N3CCC(C)(O)CC3)cnc21` [Compound 52], the half-inhibitory concentration (IC50) amounted to 10 nM. Regarding `Cc1ccc(O)c(C)c1-n1c(N)c(C(N)=O)c2ncc(C#CCN3CCOCC3)nc21` [Compound 218], the IC50 was 22 nM.

As for `Cc1ccc(O)c(C)c1-n1c(N)c(C(N)=O)c2ncc(C#CC(C)(C)O)nc21` [Compound 239], the IC50 came to 15 nM. The figure for `Cc1ccc(O)c(C)c1-n1c(N)c(C(N)=O)c2nc(C3CC3)c(C3CC3)nc21` [Compound 256] is 50 nM; for `Cc1ccc(O)c(C)c1-n1c(N)c(C(N)=O)c2nc(CCC3CCNC3)cnc21` (centres unmarked) [Compound 280] it is 80 nM.

Regarding `Cc1ccc(O)c(C)c1-n1c(N)c(C(N)=O)c2cc(I)cnc21` [Compound 319], the IC50 was less than 10 nM. The figure for `Cc1ccc(O)c(C)c1-n1c(N)c(C(N)=O)c2nc(C3CCC3)cnc21` [Compound 173, 6-amino-2-cyclobutyl-5-(3-hydroxy-2,6-dimethyl-phenyl)pyrrolo[2,3-b]pyrazine-7-carboxamide] is less than 10 nM; for `Cc1ccc(O)c(C)c1-n1c(N)c(C(N)=O)c2nc(N3CCOC(C)C3)cnc21` (centres unmarked) [Compound 59] it is 12 nM; for `Cc1ccc(O)c(C)c1-n1c(N)c(C(N)=O)c2nc(C(N)=O)cnc21` [Compound 220, 6-amino-5-(3-hydroxy-2,6-dimethyl-phenyl)pyrrolo[2,3-b]pyrazine-2,7-dicarboxamide] it is less than 10 nM. To `Cc1ccc(O)c(C)c1-n1c(N)c(C(N)=O)c2cc(C#N)cnc21` [Compound 312] belongs less than 10 nM. The figure for `Cc1ccc(O)c(C)c1-n1c(N)c(C(N)=O)c2nc(-c3ccccn3)cnc21` [Compound 34] is less than 10 nM; for `Cc1ccc(O)c(C)c1-n1c(N)c(C(N)=O)c2cc(S(=O)(=O)C3CC3)cnc21` [Compound 311] it is less than 10 nM; for `Cc1ccc2c(C(N)=O)c(N)n(-c3c(C)ccc(O)c3C)c2n1` [Compound 193] it is less than 10 nM. As for `Cc1ccc(O)c(C)c1-n1c(N)c(C(N)=O)c2cc(Br)cnc21` [Compound 141], the IC50 is less than 10 nM. The figure for `Cc1ccc(O)cc1-n1c(N)c(C(N)=O)c2nc(C#CCC(C)(C)O)ccc21` [Compound 17] is 9060 nM; for `Cc1ccc(O)c(C)c1-n1cc(C(N)=O)c2cc(C3CC3)cnc21` [Compound 143] it is less than 10 nM.

As for `Cc1ccc(O)cc1-n1c(N)c(C(N)=O)c2nc(-c3cccc(C(=O)O)c3)ccc21` [Compound 9], the IC50 was found to be 363 nM. As for `Cc1ccc(O)c(C)c1-n1c(N)c(C(N)=O)c2nc(C#CC3CCNC3)cnc21` (centres unmarked) [Compound 279], the half-inhibitory concentration (IC50) is 250 nM. The figure for `Cc1ccc(O)c(C)c1-n1c(N)c(C(N)=O)c2ncc(C#CC3(C)COC3)nc21` [Compound 232] is 11 nM; for `Cc1ccc(O)c(C)c1-n1c(N)c(C(N)=O)c2c(C)c(Cl)cnc21` [Compound 313] it is less than 10 nM. To `Cc1ccc(O)c(C)c1-n1c(N)c(C(N)=O)c2nc(-c3nccs3)c(C#CC3CC3)nc21` [Compound 214, 6-amino-3-(2-cyclopropylethynyl)-5-(3-hydroxy-2,6-dimethyl-phenyl)-2-thiazol-2-yl-pyrrolo[2,3-b]pyrazine-7-carboxamide] belongs 136 nM; to `Cc1ccc(O)cc1-n1c(N)c(C(N)=O)c2nc(-c3cn[nH]c3)ccc21` [Compound 5], 277 nM; to `C=Cc1cnc2c(C(N)=O)c(N)n(-c3c(C)ccc(O)c3C)c2n1` [Compound 257, 6-amino-5-(3-hydroxy-2,6-dimethyl-phenyl)-3-vinyl-pyrrolo[2,3-b]pyrazine-7-carboxamide], 43 nM. To `Cc1ccc(O)c(C)c1-n1c(N)c(C(N)=O)c2ncc(C#Cc3ccccc3)nc21` [Compound 230] belongs 368 nM.

On to `Cc1ccc(O)c(C)c1-n1c(N)c(C(N)=O)c2nc(C#N)cnc21` [Compound 219, 6-amino-2-cyano-5-(3-hydroxy-2,6-dimethyl-phenyl)pyrrolo[2,3-b]pyrazine-7-carboxamide], for which the IC50 came to 46 nM.

For `COC(C)(C)C#Cc1cnc2c(C(N)=O)c(N)n(-c3c(C)ccc(O)c3C)c2n1` [Compound 238], the half-maximal inhibitory concentration (IC50) is 10 nM. To `Cc1ccc(O)c(C)c1-n1c(N)c(C(N)=O)c2nc(-c3ncco3)cnc21` [Compound 60] belongs 10 nM; to `Cc1ccc(O)cc1-n1c(N)c(C(N)=O)c2ncc(CCc3ccccn3)nc21` [Compound 159], 1720 nM; to `Cc1ccc(O)c(C)c1-n1c(N)c(C(N)=O)c2nc(C#CC(=O)Nc3ccc(F)cc3)cnc21` [Compound 283], 32 nM.

Take `Cc1ccc(O)c(C)c1-n1c(N)c(C(N)=O)c2cc(-c3ccccn3)cnc21` [Compound 295]: the IC50 was less than 10 nM. To `Cc1ccc(O)c(C)c1-n1c(N)c(C(N)=O)c2ncc(C#C[C@@H]3COC[C@H]3O)nc21` [Compound 234] belongs 14 nM; to `Cc1ccc(O)c(C)c1-n1c(N)c(C(N)=O)c2nc(C(=O)NCc3ccccc3)cnc21` [Compound 245], 11 nM; to `Cc1ccc(O)c(C)c1-n1c(N)c(C(N)=O)c2nc(OC3CC3)cnc21` [Compound 260, 6-amino-2-(cyclopropoxy)-5-(3-hydroxy-2,6-dimethyl-phenyl)pyrrolo[2,3-b]pyrazine-7-carboxamide], 27 nM.

`Cc1ccc(O)c(C)c1-n1c(N)c(C(N)=O)c2ncc(C#CC3CCCCO3)nc21` (centres unmarked) [Compound 224]: the IC50 was found to be 13 nM. Turning to `Cc1ccc(O)c(C)c1-n1c(N)c(C(N)=O)c2cc(-c3nccs3)cnc21` [Compound 308], the IC50 is less than 10 nM. To `Cc1ccc(O)c(Cl)c1-n1c(N)c(C(N)=O)c2nc(C3CC3)cnc21` [Compound 104] belongs less than 10 nM; to `Cc1ccc(O)c(C)c1-n1c(N)c(C(N)=O)c2nc(C#CC3CCCN3)cnc21` (centres unmarked) [Compound 3], 462 nM. With `Cc1ccc(O)c(C)c1-n1c(N)c(C(N)=O)c2nc(-c3ccc(F)cn3)cnc21` [Compound 64], the IC50 was less than 10 nM. With `Cc1ccc(O)c(C)c1-n1c(N)c(C(N)=O)c2ncc(C#C[C@@H]3OCC[C@@H]3Cl)nc21` [Compound 233], the IC50 was found to be 10 nM. The figure for `Cc1ccc(O)c(C)c1-n1c(N)c(C(N)=O)c2nc(-c3nc(C)c(C)s3)cnc21` [Compound 32] is less than 10 nM; for `CCCCc1cnc2c(n1)c(C(N)=O)c(N)n2-c1c(Cl)ccc(O)c1C` [Compound 107] it is 12 nM; for `Cc1ccc(O)c(C)c1-n1c(N)c(C(N)=O)c2nc(C3CCCCC3)cnc21` [Compound 83] it is less than 10 nM. To `Cc1ccc(O)c(C)c1-n1c(N)c(C(N)=O)c2cc(C(C)C)cnc21` [Compound 138] belongs less than 10 nM; to `Cc1ccc(O)c(C)c1-n1c(N)c(C(N)=O)c2nc(N3CCC(C(=O)N(C)C)CC3)cnc21` [Compound 80], less than 10 nM.

Consider `Cc1ccc(O)c(C)c1-n1c(N)c(C(N)=O)c2nc(N3CCCCC3)cnc21` [Compound 81], for which the concentration for half-maximal inhibition (IC50) was less than 10 nM. The figure for `Cc1ccc(O)c(C)c1-n1c(N)c(C(N)=O)c2nc(-c3ccncn3)cnc21` [Compound 57] is less than 10 nM. `Cc1ccc(O)c(C)c1-n1c(N)c(C(N)=O)c2ncc(C#C[C@H](C)O)nc21` [Compound 229]: the concentration for half-maximal inhibition (IC50) came to 52 nM. Turning to `Cc1ccc(O)c(C)c1-n1c(N)c(C(N)=O)c2nc(-c3ccns3)cnc21` [Compound 41], the IC50 is less than 10 nM. The figure for `Cc1ccc(O)c(C)c1-n1c(N)c(C(N)=O)c2nc(-c3nc4ccccc4o3)cnc21` [Compound 249] is 20 nM. To `Cc1ccc(O)c(C)c1-n1c(N)c(C(N)=O)c2cc(C3=CCOCC3)cnc21` [Compound 304] belongs less than 10 nM; to `Cc1ccc(O)cc1-n1c(N)c(C(N)=O)c2nc(OCc3ccccc3)cnc21` [Compound 281], 784 nM.
